The text below walks through data of ChEMBL document CHEMBL3044610, “Khayanolides, rearranged phragmalin limonoid antifeedants from Khaya senegalensis” (Tetrahedron, 2001).

What all share (assay type): functional, organism-based
Experiment [1] concerns Spodoptera littoralis. Kind of experiment: Antifeedant activity against third-instar larva of Spodoptera littoralis fed on compound-treated Chinese cabbage leaf at 300 ppm by leaf-disk method.
In experiment [2] the test system is Spodoptera littoralis. As to the kind of experiment: Antifeedant activity against third-instar larva of Spodoptera littoralis fed on compound-treated Chinese cabbage leaf at 500 ppm by leaf-disk method.
Experiment [3] deals with Spodoptera littoralis. As to the kind of experiment: Antifeedant activity against third-instar larva of Spodoptera littoralis fed on compound-treated Chinese cabbage leaf at 1000 ppm by leaf-disk method.

The source made the active and inactive calls. No cut-off for these calls is given here.

With `COC(=O)[C@H](O)[C@H]1[C@]2(C)C[C@]3(O)[C@H](C(=O)[C@H]2O)[C@]24O[C@]25CC(=O)O[C@H](c2ccoc2)[C@]5(C)CC[C@@H]4[C@]13C`, the outcome in experiment [1] was Active.

Turning to `C=C1[C@@H]2CC[C@@]3(C)[C@H](c4ccoc4)OC(=O)C[C@]13O[C@H]1CC(=O)C(C)(C)[C@H](CC(=O)OC)[C@]12C`, the outcome in experiment [2] was Active. For `COC(=O)[C@H](O)[C@H]1[C@@]2(C)C[C@]3(O)[C@H]4[C@@H](O[C@]56CC(=O)O[C@H](c7ccoc7)[C@]5(C)CC[C@H]([C@]13C)[C@]46O)[C@H]2O`, the result in experiment [2] was Active. In the case of `CC1(C)C(=O)[C@@H]2C[C@@]34O[C@]2(O)[C@]2(COC(=O)C[C@@H]12)[C@H]3CC[C@]1(C)[C@H]4CC(=O)O[C@H]1c1ccoc1`, in experiment [1], the outcome was Active. As for `C=C1[C@@H]2CC[C@@]3(C)[C@H](c4ccoc4)OC(=O)C[C@]13O[C@H]1CC(=O)C(C)(C)[C@H](C(OC(C)=O)C(=O)OC)[C@]12C` (some centres not stated), the outcome in experiment [2] was Active. Same read-out and setting: to `C=C1[C@@H]2CC[C@@]3(C)[C@H](c4ccoc4)OC(=O)C[C@]13O[C@H]1CC(=O)C(C)(C)[C@H](C(O)C(=O)OC)[C@]12C` (some centres not stated) belongs “Active”. For `COC(=O)[C@H](O)[C@H]1[C@]2(C)C[C@]3(O)[C@@H](C(=O)[C@H]2O)[C@]2(O)C4=CC(=O)O[C@@H](c5ccoc5)[C@]4(C)CC[C@@H]2[C@]13C`, in experiment [3], the outcome was Active.
